Measured values published in patent publication US20260325540A1 (priority 2023, published 2026).

Columns and labels:
[1] = biological target: MERS-CoV 3CLpro (Middle East respiratory syndrome-related coronavirus, UniProt K9N638); experiment: biochemical; conditions: MERS IC50, 75 nM MERS-CoV 3CLpro, 6 μM peptide 1 substrate, 25° C., 1.5 hrs, pH 7.5
[2] = biological target: SARS-CoV-2 3CLpro (Severe acute respiratory syndrome coronavirus 2, UniProt P0DTD1); experiment: FRET based protease assay, SARS-CoV-2 3CL; type: biochemical, SARS-CoV-2 (strain BetaCoV/Wuhan/WIV04/2019)

Sequence of MERS-CoV 3CLpro (K9N638 3248-3553 limits assumed): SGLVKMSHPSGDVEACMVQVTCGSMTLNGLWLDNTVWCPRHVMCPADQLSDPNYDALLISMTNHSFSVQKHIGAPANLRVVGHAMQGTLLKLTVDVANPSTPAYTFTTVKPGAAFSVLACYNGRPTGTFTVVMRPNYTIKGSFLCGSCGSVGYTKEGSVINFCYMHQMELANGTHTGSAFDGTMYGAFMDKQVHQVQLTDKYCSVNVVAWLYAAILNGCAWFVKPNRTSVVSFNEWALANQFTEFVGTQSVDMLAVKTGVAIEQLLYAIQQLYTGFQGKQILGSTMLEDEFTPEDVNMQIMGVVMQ

| SMILES | IC50 [1] [nM] | IC50 [2] [nM] |
| --- | --- | --- |
| CC1(C)[C@@H]2[C@H]3C(=O)N[C@H](C#N)C[C@@H]4C(=O)NC[C@@H]4CCCC[C@H](NS(=O)(=O)C4(C)CC4)C(=O)N3C[C@@H]21 [Example 159] | < 100 | < 100 |
| CC(C)(C)OC(=O)N[C@H]1CCC[C@H]2CNC(=O)[C@H]2C[C@@H](C#N)NC(=O)[C@@H]2[C@@H]3[C@H](CN2C(=O)C1)C3(C)C [Example 125] | > 20000 | 1000 to 20000 |
| Cc1cc(C(=O)N[C@H]2CCCC[C@H]3CNC(=O)[C@H]3C[C@@H](C#N)NC(=O)[C@@H]3[C@@H]4[C@H](CN3C2=O)C4(C)C)on1 [Example 109] | < 100 | < 100 |
| CC(C)(C)OC(=O)N[C@H]1COCCC[C@H]2CNC(=O)[C@H]2C[C@@H](C#N)NC(=O)[C@@H]2[C@@H]3[C@H](CN2C1=O)C3(C)C [Example 102] | 100 to 1000 | < 100 |
| CC(C)(C)C(=O)N[C@H]1CCCC[C@H]2CNC(=O)[C@H]2C[C@@H](C#N)NC(=O)[C@@H]2CCCCN2C1=O [Example 71] | 1000 to 20000 | 1000 to 20000 |
| CC(C)C[C@@H]1NC(=O)CCCC[C@H]2CNC(=O)[C@@H]2C[C@@H](C#N)NC1=O [Example 24] | 1000 to 20000 | 1000 to 20000 |
| CC(C)(C)C[C@@H]1NC(=O)[C@@H](NC(=O)OC(C)(C)C)CCCC[C@H]2CNC(=O)[C@H]2C[C@@H](C#N)NC1=O [Example 60] | 100 to 1000 | < 100 |
| CC(C)C[C@@H]1NC(=O)[C@@H](CC2CCCC2)CCC[C@H]2CNC(=O)[C@@H]2C[C@@H](C=O)NC1=O [Example 18] | 100 to 1000 | 100 to 1000 |
| CC1(C(=O)N[C@H]2CCCC[C@H]3CNC(=O)[C@H]3C[C@@H](C#N)NC(=O)[C@@H]3[C@@H]4[C@H](CN3C2=O)C4(C)C)COC1 [Example 123] | 100 to 1000 | < 100 |
| CC1(C)[C@@H]2[C@H]3C(=O)N[C@H](C#N)C[C@@H]4C(=O)NC[C@@H]4CCCC[C@H](NC(=O)OC4(C(F)(F)F)CCC4)C(=O)N3C[C@@H]21 [Example 152] | < 100 | < 100 |
| CC(C)C[C@@H]1NC(=O)CCCCCC[C@@H]2CNCC(=O)[C@H]2C[C@@H](C=O)NC1=O [Example 51] | > 20000 | 1000 to 20000 |
| CC(C)(C)OC(=O)N[C@H]1CCCC[C@H]2CNC(=O)[C@H]2C[C@@H](C#N)NC(=O)[C@H]2N(CC(F)(F)C2(C)C)C1=O [Example 146] | 100 to 1000 | 100 to 1000 |
| CC1(C)[C@@H]2[C@H]3C(=O)N[C@H](C#N)C[C@@H]4C(=O)NC[C@@H]4CCCC[C@H](NC(=O)c4cccc(Cl)c4Cl)C(=O)N3C[C@@H]21 [Example 134] | < 100 | < 100 |
| CC1(C)[C@@H]2[C@H]3C(=O)N[C@H](C#N)C[C@@H]4C(=O)NC[C@@H]4CCCC[C@H](NC(=O)c4ccncn4)C(=O)N3C[C@@H]21 [Example 91] | < 100 | < 100 |
| N#C[C@@H]1C[C@@H]2C(=O)NC[C@@H]2CCCC[C@H](NC(=O)C2CC(F)(F)C2)C(=O)N2C[C@@H]3CCC[C@@H]3[C@H]2C(=O)N1 [Example 84] | 100 to 1000 | < 100 |
| CC(C)(F)C[C@@H]1NC(=O)[C@@H](NC(=O)OC(C)(C)C)CCCC[C@H]2CNC(=O)[C@H]2C[C@@H](C#N)NC1=O [Example 138] | 100 to 1000 | 100 to 1000 |
| CC(C)C[C@@H]1NC(=O)[C@@H](Cc2ccccc2)CCC[C@H]2CNC(=O)[C@@H]2C[C@@H](C=O)NC1=O [Example 17] | 100 to 1000 | 100 to 1000 |
| CC(C)C[C@@H]1NC(=O)CCCCC[C@@H]2CNC(=O)[C@H]2C[C@@H](C=O)NC1=O [Example 31] | > 20000 | > 20000 |

| SMILES | IC50 [1] [nM] | IC50 [2] [nM] |
| --- | --- | --- |
| CC(C)(C)C(=O)N[C@H]1CCCC[C@H]2CNC(=O)[C@H]2C[C@@H](C#N)NC(=O)[C@@H]2[C@@H]3[C@H](CN2C1=O)C3(C)C [Example 55] | 100 to 1000 | < 100 |
| CC(C)(C)OC(=O)N[C@H]1CCCC[C@H]2CCNC(=O)[C@H]2C[C@@H](C#N)NC(=O)[C@@H]2[C@@H]3[C@H](CN2C1=O)C3(C)C [Example 110] | 100 to 1000 | < 100 |
| CC(C)(C)OC(=O)N[C@H]1CC/C=C\[C@H]2CCNC(=O)[C@H]2C[C@@H](C#N)NC(=O)[C@@H]2[C@@H]3[C@H](CN2C1=O)C3(C)C [Example 114] | 100 to 1000 | < 100 |
| N#C[C@@H]1C[C@@H]2C(=O)NC[C@@H]2CCCC[C@H](NC(=O)OC2CCCC2)C(=O)N2C[C@@H]3CCC[C@@H]3[C@H]2C(=O)N1 [Example 94] | < 100 | < 100 |
| CC(C)(C)OC(=O)N[C@@]1(C)CCCCC[C@H]2CNC(=O)[C@H]2C[C@@H](C#N)NC(=O)[C@@H]2[C@@H]3[C@H](CN2C1=O)C3(C)C [Example 126] | > 20000 | > 20000 |
| CC1(C)[C@@H]2[C@H]3C(=O)N[C@H](C#N)C[C@@H]4C(=O)NC[C@@H]4CCCC[C@H](NC(=O)C4CC5(CCC5)C4)C(=O)N3C[C@@H]21 (stereo partly drawn) [Example 81] | 100 to 1000 | < 100 |
| CC1(C)[C@@H]2[C@H]3C(=O)N[C@H](C#N)C[C@@H]4C(=O)NC[C@@H]4CCCC[C@H](NC(=O)C4(C(F)(F)F)CC4)C(=O)N3C[C@@H]21 [Example 117] | < 100 | < 100 |
| CC(C)C[C@@H]1NC(=O)[C@@H](C2CCCC2)CCC[C@@H]2CNC(=O)[C@@H]2C[C@@H](C=O)NC1=O [Example 14] | 1000 to 20000 | 100 to 1000 |
| CC1(C)[C@@H]2[C@H]3C(=O)N[C@H](C#N)C[C@@H]4C(=O)NC[C@@H]4CCCC[C@H](NC(=O)C(F)(F)F)C(=O)N3C[C@@H]21 [Example 87] | < 100 | < 100 |
| CC1(C)[C@@H]2[C@H]3C(=O)N[C@H](C#N)C[C@@H]4C(=O)NC[C@@H]4CCCC[C@H](NC(=O)c4cc(Cl)ccc4Cl)C(=O)N3C[C@@H]21 [Example 133] | < 100 | < 100 |
| CC(C)C[C@@H]1NC(=O)CCCCCC[C@@H]2CNC(=O)[C@H]2C[C@@H](C=O)NC1=O [Example 47] | > 20000 | 1000 to 20000 |
| CC(C)(C)C(=O)N[C@H]1CCCC[C@H]2CNC(=O)[C@@H]2C[C@@H](C#N)NC(=O)[C@@H]2[C@@H]3[C@H](CN2C1=O)C3(C)C [Example 67] | 100 to 1000 | 100 to 1000 |
| CC(C)(C(=O)N[C@H]1CCCC[C@H]2CNC(=O)[C@H]2C[C@@H](C#N)NC(=O)[C@@H]2[C@@H]3[C@H](CN2C1=O)C3(C)C)c1ccc(Cl)cc1 [Example 121] | 100 to 1000 | < 100 |
| CC(C)(C)C[C@@H]1NC(=O)[C@@H](NC(=O)C2(C(F)(F)F)CC2)CCCC[C@H]2CNC(=O)[C@H]2C[C@@H](C#N)NC1=O [Example 149] | 100 to 1000 | < 100 |
| CC1(C)[C@@H]2[C@H]3C(=O)N[C@H](C#N)C[C@@H]4C(=O)NC[C@@H]4CCCC[C@H](NC(=O)CC4CCCC4)C(=O)N3C[C@@H]21 [Example 90] | 100 to 1000 | < 100 |
| N#C[C@@H]1C[C@H]2C(=O)NC[C@@H]2CCCCC(=O)N2C[C@@H]3CCC[C@@H]3[C@H]2C(=O)N1 [Example 26] | > 20000 | > 20000 |
| CC1(C)[C@@H]2[C@H]3C(=O)N[C@H](C#N)C[C@@H]4C(=O)NC[C@@H]4CCCC[C@H](NS(=O)(=O)C4CC4)C(=O)N3C[C@@H]21 [Example 156] | < 100 | < 100 |
| CC(C)C[C@@H]1NC(=O)[C@@H](C2CCCC2)CCC[C@H]2CNC(=O)[C@@H]2C[C@@H](C#N)NC1=O [Example 28] | 1000 to 20000 | 1000 to 20000 |
